Test results published in patent US9834554B2, “BTK inhibitors” (MERCK SHARP & DOHME CORP., priority 2013, dated 2017).

target: BTK enzyme (recombinant full-length BTK, hBTK) (Homo sapiens (Human), UniProt Q06187); assay: Btk enzyme activity assay, LANCE TR-FRET; conditions: not given
Sequence (Q06187 whole entry): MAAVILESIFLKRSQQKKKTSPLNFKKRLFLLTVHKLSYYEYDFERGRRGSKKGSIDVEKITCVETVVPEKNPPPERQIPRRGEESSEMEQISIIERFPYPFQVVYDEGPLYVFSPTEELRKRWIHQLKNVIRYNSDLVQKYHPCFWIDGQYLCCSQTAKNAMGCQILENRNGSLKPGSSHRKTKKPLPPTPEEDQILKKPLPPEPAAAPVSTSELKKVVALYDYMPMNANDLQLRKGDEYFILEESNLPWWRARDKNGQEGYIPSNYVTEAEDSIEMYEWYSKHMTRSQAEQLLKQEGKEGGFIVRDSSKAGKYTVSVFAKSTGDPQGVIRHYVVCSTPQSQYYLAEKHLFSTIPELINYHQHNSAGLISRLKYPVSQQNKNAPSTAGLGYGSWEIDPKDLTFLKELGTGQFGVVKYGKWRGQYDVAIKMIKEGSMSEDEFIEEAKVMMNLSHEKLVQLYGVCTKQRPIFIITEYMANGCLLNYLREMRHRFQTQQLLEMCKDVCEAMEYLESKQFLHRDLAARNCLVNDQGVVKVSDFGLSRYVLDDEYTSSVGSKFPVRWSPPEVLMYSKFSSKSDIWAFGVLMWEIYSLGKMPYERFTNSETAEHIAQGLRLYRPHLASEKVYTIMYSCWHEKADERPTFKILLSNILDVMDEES

IC50 | SMILES
2.2 nM | N#CC1(C(=O)N2CCC[C@@H](c3nn(-c4ccc(C(=O)Nc5cc(C(F)(F)F)ccn5)cc4)c4c(N)nccc34)C2)CC1 [Example 27, 4-(7-amino-3-{(3R)-1-[(1-cyanocyclopropyl)carbonyl]piperidin-3-yl}-1H-pyrazolo[3,4-c]pyridin-1-yl)-N-[4-(trifluoromethyl)pyridin-2-yl]benzamide]

same assay, conditions: read-out: BTK binding IC50; 50 pM hBTK, 2 μM biotin-A5-peptide, 25 μM ATP; 60 minute compound & enzyme incubation

IC50 | SMILES
3 nM | Nc1nccc2c([C@@H]3CCCN(C(=O)C4CC4(F)F)C3)nn(-c3ccc(C(=O)Nc4cc(C(F)(F)F)ccn4)cc3)c12 (stereo partly drawn) [Example 12, 4-(7-amino-3-{(3R)-1-[(2,2-difluorocyclopropyl)carbonyl]piperidin-3-yl}-1H-pyrazolo[3,4-c]pyridin-1-yl)-N-[4-(trifluoromethyl)pyridin-2-yl]benzamide]
4.7 nM | Nc1nccc2c([C@@H]3CCCN(C(=O)c4cnon4)C3)nn(-c3ccc(C(=O)Nc4cc(C(F)(F)F)ccn4)cc3)c12 [Example 13, 4-{7-amino-3-[(3R)-1-(1,2,5-oxadiazol-3-ylcarbonyl)piperidin-3-yl]-1H-pyrazolo[3,4-c]pyridin-1-yl}-N-[4-(trifluoromethyl)pyridin-2-yl]benzamide]
3.5 nM | Nc1nccc2c([C@@H]3CCCN(C(=O)CC4CCC4)C3)nn(-c3ccc(C(=O)Nc4cc(C(F)(F)F)ccn4)cc3)c12 [Example 14, 4-{7-amino-3-[(3R)-1-(cyclobutylacetyl)piperidin-3-yl]-1H-pyrazolo[3,4-c]pyridin-1-yl}-N-[4-(trifluoromethyl)pyridin-2-yl]benzamide]
5.3 nM | Cc1noc(C)c1C(=O)N1CCC[C@@H](c2nn(-c3ccc(C(=O)Nc4cc(C(F)(F)F)ccn4)cc3)c3c(N)nccc23)C1 [Example 15, 4-(7-amino-3-{(3R)-1-[(3,5-dimethylisoxazol-4-yl)carbonyl]piperidin-3-yl}-1H-pyrazolo[3,4-c]pyridin-1-yl)-N-[4-(trifluoromethyl)pyridin-2-yl]benzamide]
0.51 nM | COCCC(=O)N1CCC[C@@H](c2nn(-c3ccc(C(=O)Nc4cc(C(F)(F)F)ccn4)cc3)c3c(N)nccc23)C1 [Example 16, 4-{7-amino-3-[(3R)-1-(3-methoxypropanoyl)piperidin-3-yl]-1H-pyrazolo[3,4-c]pyridin-1-yl}-N-[4-(trifluoromethyl)pyridin-2-yl]benzamide]
2.5 nM | Nc1nccc2c([C@@H]3CCCN(C(=O)C4CC(F)(F)C4)C3)nn(-c3ccc(C(=O)Nc4cc(C(F)(F)F)ccn4)cc3)c12 [Example 17, 4-(7-amino-3-{(3R)-1-[(3,3-difluorocyclobutyl)carbonyl]piperidin-3-yl}-1H-pyrazolo[3,4-c]pyridin-1-yl)-N-[4-(trifluoromethyl)pyridin-2-yl]benzamide]
0.9 nM | COCC(=O)N1CCC[C@@H](c2nn(-c3ccc(C(=O)Nc4cc(C(F)(F)F)ccn4)cc3)c3c(N)nccc23)C1 [Example 18, 4-{7-amino-3-[(3R)-1-(methoxyacetyl)piperidin-3-yl]-1H-pyrazolo[3,4-c]pyridin-1-yl}-N-[4-(trifluoromethyl)pyridin-2-yl]benzamide]
1.2 nM | CC(C)C(=O)N1CCC[C@@H](c2nn(-c3ccc(C(=O)Nc4cc(C(F)(F)F)ccn4)cc3)c3c(N)nccc23)C1 [Example 19, 4-{7-amino-3-[(3R)-1-(2-methylpropanoyl)piperidin-3-yl]-1H-pyrazolo[3,4-c]pyridin-1-yl}-N-[4-(trifluoromethyl)pyridin-2-yl]benzamide]
1.6 nM | Nc1nccc2c([C@@H]3CCCN(C(=O)C4CCC4)C3)nn(-c3ccc(C(=O)Nc4cc(C(F)(F)F)ccn4)cc3)c12 [Example 20, 4-{7-amino-3-[(3R)-1-(cyclobutylcarbonyl)piperidin-3-yl]-1H-pyrazolo[3,4-c]pyridin-1-yl}-N-[4-(trifluoromethyl)pyridin-2-yl]benzamide]
0.53 nM | CC(=O)N1CCC[C@@H](c2nn(-c3ccc(C(=O)Nc4cc(C(F)(F)F)ccn4)cc3)c3c(N)nccc23)C1 [Example 21, 4-{3-[(3R)-l-acetylpiperidin-3-yl]-7-amino-1H-pyrazolo[3,4-c]pyridin-1-yl}-N-[4-(trifluoromethyl)pyridin-2-yl]benzamide]
1.2 nM | CCOCC(=O)N1CCC[C@@H](c2nn(-c3ccc(C(=O)Nc4cc(C(F)(F)F)ccn4)cc3)c3c(N)nccc23)C1 [Example 22, 4-{7-amino-3-[(3R)-1-(ethoxyacetyl)piperidin-3-yl]-1H-pyrazolo[3,4-c]pyridin-1-yl}-N-[4-(trifluoromethyl)pyridin-2-yl]benzamide]
1.2 nM | COCCOCC(=O)N1CCC[C@@H](c2nn(-c3ccc(C(=O)Nc4cc(C(F)(F)F)ccn4)cc3)c3c(N)nccc23)C1 [Example 23, 4-(7-amino-3-{(3R)-1-[(2-methoxyethoxy)acetyl]piperidin-3-yl}-1H-pyrazolo[3,4-c]pyridin-1-yl)-N-[4-(trifluoromethyl)pyridin-2-yl]benzamide]
0.86 nM | Nc1nccc2c([C@@H]3CCCN(C(=O)C4CC4)C3)nn(-c3ccc(C(=O)Nc4cc(C(F)(F)F)ccn4)cc3)c12 [Example 24, 4-{7-amino-3-[(3R)-1-(cyclopropylcarbonyl)piperidin-3-yl]-1H-pyrazolo[3,4-c]pyridin-1-yl}-N-[4-(trifluoromethyl)pyridin-2-yl]benzamide]
0.59 nM | Nc1nccc2c([C@@H]3CCCN(C(=O)C4(O)CC4)C3)nn(-c3ccc(C(=O)Nc4cc(C(F)(F)F)ccn4)cc3)c12 [Example 25, 4-(7-amino-3-{(3R)-1-[(1-hydroxycyclopropyl)carbonyl]piperidin-3-yl}-1H-pyrazolo[3,4-c]pyridin-1-yl)-N-[4-(trifluoromethyl)pyridin-2-yl]benzamide]
0.81 nM | CC1(C(=O)N2CCC[C@@H](c3nn(-c4ccc(C(=O)Nc5cc(C(F)(F)F)ccn5)cc4)c4c(N)nccc34)C2)CC1 [Example 26, 4-(7-amino-3-{(3R)-1-[(1-methylcyclopropyl)carbonyl]piperidin-3-yl}-1H-pyrazolo[3,4-c]pyridin-1-yl)-N-[4-(trifluoromethyl)pyridin-2-yl]benzamide]
0.98 nM | C[C@H]1CC[C@@H](c2nn(-c3ccc(C(=O)Nc4cc(C5CC5)ccn4)cc3)c3c(N)nccc23)CN1C(=O)C1(C)COC1 [Example 30, 4-(7-amino-3-((3R,6S)-6-methyl-1-(3-methyloxetane-3-carbonyl)piperidin-3-yl)-1H-pyrazolo[3,4-c]pyridin-1-yl)-N-(4-cyclopropylpyridin-2-yl)benzamide]
1.3 nM | C[C@H]1CC[C@@H](c2nn(-c3ccc(C(=O)Nc4cc(C5CC5)ccn4)cc3)c3c(N)nccc23)CN1C(=O)C1CC1 [Example 31, 4-{7-amino-3-[(3R,6S)-1-(cyclopropylcarbonyl)-6-methylpiperidin-3-yl]-1H-pyrazolo[3,4-c]pyridin-1-yl}-N-(4-cyclopropylpyridin-2-yl)benzamide]
1.6 nM | C[C@H](O)C(=O)N1C[C@H](c2nn(-c3ccc(C(=O)Nc4cc(C5CC5)ccn4)cc3)c3c(N)nccc23)CC[C@@H]1C [Example 32, 4-(7-amino-3-{(3R,6S)-1-[(2S)-2-hydroxypropanoyl]-6-methylpiperidin-3-yl}-1H-pyrazolo[3,4-c]pyridin-1-yl)-N-(4-cyclopropylpyridin-2-yl)benzamide]
2 nM | CO[C@@H](C)C(=O)N1C[C@H](c2nn(-c3ccc(C(=O)Nc4cc(C5CC5)ccn4)cc3)c3c(N)nccc23)CC[C@@H]1C [Example 33, 4-(7-amino-3-{(3R,6S)-1-[(2S)-2-methoxypropanoyl]-6-methylpiperidin-3-yl}-1H-pyrazolo[3,4-c]pyridin-1-yl)-N-(4-cyclopropylpyridin-2-yl)benzamide]
0.87 nM | C[C@H]1CC[C@@H](c2nn(-c3ccc(C(=O)Nc4cccc(OC5CC5)c4)cc3)c3c(N)nccc23)CN1C(=O)C1CC1 [Example 34, 4-(7-amino-3-((3R,6S)-1-(cyclopropanecarbonyl)-6-methylpiperidin-3-yl)-1H-pyrazolo[3,4-c]pyridin-1-yl)-N-(3-cyclopropoxyphenyl)benzamide]
0.96 nM | C[C@H]1CC[C@@H](c2nn(-c3ccc(C(=O)Nc4cccc(OC5CC5)c4)cc3)c3c(N)nccc23)CN1C(=O)C1(C)COC1 [Example 35, 4-(7-amino-3-((3R,6S)-6-methyl-1-(3-methyloxetane-3-carbonyl)piperidin-3-yl)-1H-pyrazolo[3,4-c]pyridin-1-yl)-N-(3-cyclopropoxyphenyl)benzamide]
30.4 nM | C[C@@H](O)C(=O)N1C[C@H](c2nn(-c3ccc(C(=O)Nc4cccc(OC5CC5)c4)cc3)c3c(N)nccc23)CC[C@@H]1C [Example 36, 4-(7-amino-3-((3R,6S)-1-((R)-2-hydroxypropanoyl)-6-methylpiperidin-3-yl)-1H-pyrazolo[3,4-c]pyridin-1-yl)-N-(3-cyclopropoxyphenyl)benzamide]
2.1 nM | COc1cc(C(=O)Nc2cccc(C(F)(F)F)c2)ccc1-n1nc([C@@H]2CC[C@H](C)N(C(=O)C3CC3)C2)c2ccnc(N)c21 [Example 37, 4-(7-amino-3-((3R,6S)-1-(cyclopropanecarbonyl)-6-methylpiperidin-3-yl)-1H-pyrazolo[3,4-c]pyridin-1-yl)-3-methoxy-N-(3-(trifluoromethyl)phenyl)benzamide]

SMILES | IC50
COc1ccnc(NC(=O)c2ccc(-n3nc([C@@H]4CCCN(C(=O)C5(C)COC5)C4)c4ccnc(N)c43)cc2)c1 [Example 28, (R)-4-(7-amino-3-(1-(3-methyloxetane-3-carbonyl)piperidin-3-yl)-1H-pyrazolo[3,4-c]pyridin-1-yl)-N-(4-methoxypyridin-2-yl)benzamide 2,2,2-trifluoroacetate] | 0.49 nM
COc1ccnc(NC(=O)c2ccc(-n3nc([C@@H]4CCCN(C(=O)C(C)(CO)CO)C4)c4ccnc(N)c43)cc2)c1 [Example 29, (R)-4-(7-amino-3-(1-(3-hydroxy-2-(hydroxymethyl)-2-methylpropanoyl)piperidin-3-yl)-1H-pyrazolo[3,4-c]pyridin-1-yl)-N-(4-methoxypyridin-2-yl)benzamide 2,2,2-trifluoroacetate] | 1.6 nM
